Measured values: patent publication US9988405B2, “O-phenyl chalcone compounds and uses thereof” (Neopanora Bio-technology (Zhuhai) Ltd., priority 2014, dated 2018)
Like-named read-outs stand apart in the source and are kept apart here.

Key:
[1] = tested on: human liver cancer cell HepG2; assay: SRB anti-proliferative assay, HepG2; type: cell-based; settings: read-out: Anti-proliferative IC50, HepG2
Method: (§1) The present example evaluated the anti-tumor activity of the molecules provided by the present invention. The present example mainly used a method with SRB (sulforhodamine B) dying, in which proteins in the cell were stained with SRB dye to determine protein content in the cell so as to characterize cell growth density. Firstly, the test compound was formulated into a stock solution (10 mM), which was stored at 4° C. in a refrigerator. Prior to beginning the assay, the stock solution was diluted with DMSO into a series of different concentrations. The required concentrations were obtained by diluting with complete growth medium. Well growing cells were seeded in a 96-well plate (5000 cells/well, 100 uL) and cultured in an incubator at 37° C., 5% CO2, and 90% RH. 24 h later, the prepared compound solution (100 μL) was slowly added to cell solution in the 96-well plate, and the well with DMSO (final concentration 0.5%) instead of the drug was used as a drug free control. The plate was incubated for 48 h. In addition, a day 0 plate that was drug free was directly detected after cell seeded in the plate for 24 h. The 96-well plate was taken out and added with trichloroacetic acid (50 μL, final concentration 10%). The plate was incubated at 4° C. for 1 h to fix the cells.
(§2) The plate was washed with ultrapure water and air-dried. The plate was then stained with SRB dye (0.4% in 1% acetic acid, 100 μL) for 30 min at room temperature. The plate was then washed with 1% acetic acid and then air-dried. A Tris base solution (100 μL, 10 mM, pH10.4) was added, after which the plate was gently shaken for 1 h on an orbital shaker to ensure that the dyes were completed dissolved. The optical density (OD) was recorded on a TECAN Infinite M200 Pro multimode reader at 515 nm. The cell growth (% of control)=(OD value of wells added with drug−mean OD value of Day 0 plate)/(OD value of DMSO drug-free control well−mean OD value of Day 0 plate)*100.

[2] = tested on: human colon cancer cells SW480; assay: SRB anti-proliferative assay, SW480; type: cell-based; settings: read-out: Anti-proliferative IC50, SW480
Method: as §1, §2

[3] = tested on: human breast cancer cells MCF7; assay: SRB anti-proliferative assay, MCF-7; type: cell-based; settings: read-out: Anti-proliferative IC50, MCF-7
Method: as §1, §2

[4] = tested on: human nasopharyngeal carcinoma cells CNE2; assay: SRB anti-proliferative assay, CNE2; type: cell-based; settings: read-out: Anti-proliferative IC50, CNE2
Method: as §1, §2

[5] = tested on: incristine resistant human ileocecum carcinoma cell HCT-8/VCT; assay: SRB anti-proliferative assay, drug-resistant HCT-8/VCT; type: cell-based; settings: HCT8/VCT, read-out: Anti-proliferative IC50, HCT-8/VCT
Method: as §1, §2
(§3) We also evaluated the anti-proliferation activities of selected compounds against drug-resistant cancer cell lines.

[6] = tested on: doxorubicin resistant breast cancer cell MCF-7/DOX; assay: SRB anti-proliferative assay, drug-resistant MCF-7/DOX; type: cell-based; settings: Homo sapiens, MCF7-DOX, read-out: Anti-proliferative IC50, MCF-7/DOX
Method: as §1, §2, §3

[7] = tested on: human lung cancer cells A549; assay: SRB anti-proliferative assay, A549; type: cell-based; settings: read-out: Anti-proliferative IC50, A549
Method: as §1, §2

[8] = tested on: human colon cancer cells HCT8; assay: SRB anti-proliferative assay, HCT-8; type: cell-based; settings: read-out: Anti-proliferative IC50, HCT-8
Method: as §1, §2

[9] = tested on: cis-platinum resistant human lung cancer cell A549/CDDP; assay: SRB anti-proliferative assay, drug-resistant A549/CDDP; type: cell-based; settings: read-out: Anti-proliferative IC50, A549/CDDP
Method: as §1, §2, §3

[10] = tested on: human ovary cancer cells A2780; assay: SRB anti-proliferative assay, A2780; type: cell-based; settings: read-out: Anti-proliferative IC50, A2780
Method: as §1, §2

tubulin = assay: Microtubule polymerization inhibition assay (tubulin polymerization assay kit); type: biochemical; settings: 2 mg/ml tubulin, 37° C., fluorescence, 1 hour; read-out: IC50 on inhibition of microtubules polymerization
Method: Tubulin polymerization assay kit was used in the example, and the accompanying experimental protocol was followed. The specific method was described below.
Prior to the assay, the compounds were diluted with DMSO into a series of different concentrations and then diluted with sterile ultra-pure water into 10× solution of compounds. A 96-well plate was pre-warmed to 37° C. for 30 min in a multi-functional microplate reader. Reaction solution (2 mg/ml tubulin, 80 mM PIPES pH6.9, 2.0 mM MgCl2, 0.5 mM EGTA, 1.0 mM GTP, 15% glycerin) is prepared by materials needed in microtubule polymerization (tubulin buffer 85 uL, Glycerin buffer 150 μL, general buffer 205 μL, GTP ([…]) 4.4 μL). 5 μL solution of compound were added into the 96-well plate and incubated in a microplate reader for 1 min. DMSO was employed as a control. The plate was taken out and then reaction solution was immediately added ([…]). The plate was then immediately placed back into the reader and vibrated for 5 seconds before recording. The microplate reader was set at 37° C., and monitored in a kinetic model with emission wavelength at 450 nm and excitation wavelength at 360 nm. The plate was mixed and measured every minute and determined for 1 hour. A curve of fluorescence intensity v.s. time was obtained and the inhibition rate was calculated by the following formula. GraphPad Prism software was used to determine the IC50. Inhibition rate=[1−(average value of plateau of test curve−value of time 0)/(average value of plateau of DMSO curve−value of time 0)]*100.

[11] = tested on: Paclitaxel-resistant human ovarian carcinoma cell A2780/TAX; assay: SRB anti-proliferative assay, drug-resistant A2780/TAX; type: cell-based; settings: read-out: Anti-proliferative IC50, A2780/TAX
Method: as §1, §2, §3

[12] = vincristine-resistant HCT-8/VCT, SRB
[13] = doxorubicin resistant MCF-7/DOX, SRB
[14] = cis-platinum resistant A549/CDDP, SRB
[15] = paclitaxel-resistant A2780/TAX, SRB

IC50 (tubulin) | IC50 ([1]; HepG2, SRB, 48 h) | IC50 ([2]; SW480, SRB, 48 h) | IC50 ([3]; MCF7, MCF-7, SRB, 48 h) | IC50 ([4]; CNE-2, CNE2, SRB, 48 h) | IC50 [5, 12] | IC50 [6, 13] | IC50 ([7]; A549, SRB, 48 h) | IC50 ([8]; HCT-8, SRB, 48 h) | IC50 [9, 14] | IC50 ([10]; A2780, SRB, 48 h) | IC50 [11, 15] | SMILES | further results
 | 34 nM | 57 nM | 92 nM | 35 nM | 157 nM | 43 nM | 64 nM | 42 nM | 232 nM | 38 nM | 143 nM | Nc1cccc(/C=C/C(=O)c2ccccc2-c2cccc(F)c2)c1 [compound 19, (E)-1-(3′-Fluoro[1,1′-biphenyl]-2-yl)-3-(3-aminophenyl)prop-2-en-1-one] | 
 | 93 nM | 51 nM | 123 nM | 43 nM | 176 nM | 66 nM | 74 nM | 137 nM | 165 nM | 133 nM | 158 nM | O=C(/C=C/c1ccc(N(c2ccccc2)c2ccccc2)cc1)c1ccccc1-c1cccc(F)c1 [compound 17, (E)-1-(3′-Fluoro[1,1′-biphenyl]-2-yl)-3-(4-(diphenylamino)phenyl)prop-2-en-1-one] | 
 | 72 nM | 37 nM | 124 nM | 53 nM | 169 nM | 53 nM | 85 nM | 153 nM | 401 nM | 117 nM | 156 nM | COc1ccc(-c2ccccc2C(=O)/C=C/c2ccc(N(C)C)cc2)c(OC)c1OC [compound 9, (E)-1-(2′,3′,4′-trimethoxy[1,1′-biphenyl]-2-yl)-3-(4-(Dimethylamino)phenyl)prop-2-en-1-one] | 
 | 37 nM | 55 nM | 83 nM | 55 nM | 78 nM | 74 nM | 59 nM | 54 nM | 63 nM | 62 nM | 124 nM | COc1ccc(/C=C/C(=O)c2ccccc2-c2cccc(F)c2)cc1B(O)O [compound 6, (E)-(5-(3-(3′-Fluoro[1,1′-biphenyl]-2-yl)-3-oxoprop-1-en-1-yl)-2-methoxyphenyl)boronic Acid] | 
 | 44 nM | 48 nM | 87 nM | 55 nM | 117 nM | 26 nM | 44 nM | 36 nM | 317 nM | 39 nM | 130 nM | O=C(/C=C/c1cccc(O)c1)c1ccccc1-c1cccc(F)c1 [compound 12, (E)-1-(3′-Fluoro[1,1′-biphenyl]-2-yl)-3-(3-hydroxy)prop-2-en-1-one] | 
6500 nM | 52 nM | 74 nM | 96 nM | 45 nM | 266 nM | 59 nM | 55 nM | 59 nM | 122 nM | 74 nM | 289 nM | COc1ccc(/C=C/C(=O)c2ccccc2-c2ccc(OC)c(OC)c2OC)cc1O [compound 5, (E)-3-(3-Hydroxy-4-methoxyphenyl)-1-(2′,3′,4′-trimethoxy[1,1′-biphenyl]-2-yl)prop-2-en-1-one] | 
 | 170 nM | 98 nM | 138 nM | 75 nM | 3420 nM | 14600 nM | 291 nM | 165 nM | 290 nM | 83 nM | 1940 nM | COc1cccc2c1C(=O)c1c(O)c3c(c(O)c1C2=O)C[C@@](O)(C(=O)CO)C[C@@H]3O[C@H]1C[C@H](N)[C@H](O)[C@H](C)O1 [DOX, doxorubicin, reference compound] | 
3410 nM | 30 nM | 41 nM | 40 nM | 83 nM | 84 nM | 24 nM | 70 nM | 63 nM | 74 nM | 63 nM | 227 nM | COc1ccc(/C=C/C(=O)c2ccccc2-c2ccc(F)cc2)cc1B(O)O [compound 1, (E)-(5-(3-(4′-Fluoro[1,1′-biphenyl]-2-yl)-3-oxoprop-1-en-1-yl)-2-methoxyphenyl)boronic acid] | 
3560 nM | 58 nM | 47 nM | 66 nM | 36 nM | 96 nM | 45 nM | 64 nM | 133 nM | 105 nM | 94 nM | 49 nM | CN(C)c1ccc(/C=C/C(=O)c2ccccc2-c2ccc(F)cc2)cc1 [compound 2, (E)-3-(4-(Dimethylamino)phenyl)-1-(4′-fluoro[1,1′-biphenyl]-2-yl)prop-2-en-1-one] | 
 | 13 nM | 14 nM | 55 nM | 18 nM | 85 nM | 8 nM | 20 nM | 17 nM | 93 nM | 15 nM | 61 nM | COc1ccc(/C=C/C(=O)c2ccccc2-c2ccc(F)cc2)cc1S(=O)(=O)O [compound 24, (E)-5-(3-(4′-Fluoro[1,1′-biphenyl]-2-yl)-3-oxoprop-1-en-1-yl)-2-methoxy benzenesulfonic acid] | 

SMILES | IC50 (tubulin) | IC50 ([1]; HepG2, SRB, 48 h) | IC50 ([2]; SW480, SRB, 48 h) | IC50 ([3]; MCF7, MCF-7, SRB, 48 h) | IC50 ([4]; CNE-2, CNE2, SRB, 48 h) | IC50 [5, 12] | IC50 [6, 13] | IC50 ([7]; A549, SRB, 48 h) | IC50 ([8]; HCT-8, SRB, 48 h) | IC50 [9, 14] | IC50 ([10]; A2780, SRB, 48 h) | IC50 [11, 15] | further results
COc1ccc(/C=C/C(=O)c2ccccc2-c2cc(OC)c(OC)c(OC)c2)cc1O [compound 4, (E)-3-(3-Hydroxy-4-methoxyphenyl)-1-(3′,4′,5′-trimethoxy[1,1′-biphenyl]-2-yl)prop-2-en-1-one] | 2780 nM |  |  |  |  |  |  |  |  |  |  |  | IC50 ([1]; HepG2, 48 h): 46 nM; IC50 ([2]; SW480, 48 h): 61 nM; IC50 ([3]; MCF7, 48 h): 82 nM; IC50 ([4]; CNE-2, 48 h): 37 nM; IC50 [5]: 238 nM; IC50 [6]: 66 nM; IC50 ([7]; A549, 48 h): 69 nM; IC50 ([8]; HCT-8, 48 h): 56 nM; IC50 ([9]; A549/CDDP): 93 nM; IC50 ([10]; A2780, 48 h): 69 nM; IC50 ([11]; A2780/TAX): 364 nM
